According to patent US9237747B2, “Herbicidal compositions comprising 4-amino-3-chloro-5-fluoro-6-(4-chloro-2-fluoro-3-methoxyphenyl) pyridine-2-carboxylic acid or a derivative thereof and insecticides” (priority 2013, dated 2016):
Where two headings read alike, the source gives them in different places.

Assays:
DIGSA = assay type: in vivo, Digitaria sanguinalis
Method: (§1) Seeds or nutlets of the desired test plant species were planted in a soil matrix prepared by mixing a loam or sandy loam soil (e.g., 28.6 percent silt, 18.8 percent clay, and 52.6 percent sand, with a pH of about 5.8 and an organic matter content of about 1.8 percent) and calcareous grit in an 80 to 20 ratio. The soil matrix was contained in plastic pots with a volume of 1 quart and a surface area of 83.6 square centimeters (cm^2). […] The plants were grown for 8-22 days in a greenhouse with an approximate 14 hour (h) photoperiod which was maintained at about 29° C. during the day and 26° C. during the night. Nutrients (Peters Excel® 15-5-15 5-Ca 2-Mg and iron chelate) were applied in the irrigation solution as needed and water was added on a regular basis. Supplemental lighting was provided with overhead metal halide 1000-Watt lamps as necessary. The plants were employed for testing when they reached the first through fourth true leaf stage.
(§2) Treatments consisted of the acid or esters of 4-amino-3-chloro-6-(4-chloro-2-fluoro-3-methoxyphenyl)-5-fluoropyridine-2-carboxylic acid (Compound A), each formulated as an SC (suspension concentrate), and various insecticidal components alone and in combination. Forms of compound A were applied on an acid equivalent basis.
(§3) For treatments comprised of formulated compounds, measured amounts of compounds were placed individually in 25 mL glass vials and diluted in a volume of 1.25% volume per volume (v/v) Agri-Dex® crop oil concentrate to obtain 12× stock solutions. […] Application solutions were prepared by adding an appropriate amount of each stock solution (e.g., 1 mL) and diluted to the appropriate final concentrations with the addition of […] of an aqueous mixture of 1.25% (v/v) crop oil concentrate so that the final spray solutions contained 1.25+/−0.05% (v/v) crop oil concentrate.
(§4) As required, additional water and/or 97:3 v/v acetone/DMSO was added to individual application solutions so that the final acetone and DMSO concentrations of the application solutions being compared were 8.1% and 0.25%, respectively.
(§5) All stock solutions and applications solutions were visually inspected for compound compatibility prior to application. Spray solutions were applied to the plant material with an overhead Mandel track sprayer equipped with 8002E nozzles calibrated to deliver 187 L/ha over an application area of 0.503 square meters (m^2) at a spray height of 18 to 20 inches (46 to 50 cm) above average plant canopy height. Control plants were sprayed in the same manner with the solvent blank.
(§6) The treated plants and control plants were placed in a greenhouse as described above and watered by sub-irrigation to prevent wash-off of the test compounds. After approximately 3 weeks, the condition of the test plants as compared to that of the untreated plants was determined visually and scored on a scale of 0 to 100 percent where 0 corresponds to no injury or growth inhibition and 100 corresponds to complete kill.
(§7) Colby's equation was used to determine the herbicidal effects expected from the mixtures (Colby, S. R. Calculation of the synergistic and antagonistic response of herbicide combinations. Weeds 1967, 15, 20-22.).
(§8) The following equation was used to calculate the expected activity of mixtures containing two active ingredients, A and B: Expected=A+B−(A×B/100)

ECHCG = assay type: in vivo, Echinochloa crus-galli
Method: as §1, §2, §3, §4, §5, §6, §7, §8

IPOHE = assay type: in vivo, Ipomoea hederacea
Method: as §1, §2, §3, §4, §5, §6, §7, §8

LEFCH = test: whole plant or invertebrate; assay type: in vivo, Leptochloa chinensis
Method: as §1, §2, §3, §4, §5, §6, §7, §8

BRAPP = test: Postemergence foliar-applied weed control, direct-seeded rice (greenhouse); assay type: in vivo, Brachiaria platyphylla
Description: (§9) Seeds or nutlets of the desired test plant species were planted in a soil matrix prepared by mixing a loam or sandy loam soil (e.g., 28.6 percent silt, 18.8 percent clay, and 52.6 percent sand, with a pH of about 5.8 and an organic matter content of about 1.8 percent) and calcareous grit in an 80 to 20 ratio. The soil matrix was contained in plastic pots with a volume of 1 quart and a surface area of 83.6 square centimeters (cm^2). When required to ensure good germination and healthy plants, a fungicide treatment and/or other chemical or physical treatment was applied. The plants were grown for 8-22 days in a greenhouse with an approximate 14 hour (h) photoperiod which was maintained at about 29° C. during the day and 26° C. during the night. Nutrients (Peters Excel® 15-5-15 5-Ca 2-Mg and iron chelate) were applied in the irrigation solution as needed and water was added on a regular basis. Supplemental lighting was provided with overhead metal halide 1000-Watt lamps as necessary. The plants were employed for testing when they reached the first through fourth true leaf stage.
as §2
(§10) Treatment requirements were calculated based upon the rates being tested, the concentration of active ingredient or acid equivalent in the formulation, and a 12 milliliter (mL) application volume at a rate of 187 liters per hectare (L/ha).
as §3, §4, §5, §6, §7, §8

CYPIR = assay type: in vivo, Cyperus iria
Description: as §9, §2, §10, §3, §4, §5, §6, §7, §8

CYPES = assay type: in vivo, Cyperus esculentus
Method: as §1, §2, §3, §4, §5, §6, §7, §8

**Q.** `CC1(C)C(C=C(Cl)Cl)C1C(=O)OC(C#N)c1cccc(Oc2ccccc2)c1` (racemic) [Cypermethrin, (RS)-α-cyano-3-phenoxybenzyl(1RS)-cis-trans-3-(2,2-dichlorovinyl)-2,2-dimethylcyclopropanecarboxylate, reference compound] was tested. Which “Visual Weed Control (%) - 21 DAA DIGSA Obs” value (DIGSA; 15 g ai/ha alone) did it give?
**A.** The value was 0%.

**Q.** And the “Visual Weed Control (%) - 21 DAA DIGSA Obs” value (DIGSA; 30 g ai/ha alone)?
**A.** The value was 0%.

**Q.** What about the “Visual Weed Control (%) - 21 DAA DIGSA Obs” value (DIGSA; 60 g ai/ha alone) of the same compound?
**A.** The value was 0%.

**Q.** What about the “Visual Weed Control (%) - 22 DAA ECHCG Obs” value (ECHCG; 7.5 g ai/ha alone) of the same compound?
**A.** Its value is 0%.

**Q.** And the “Visual Weed Control (%) - 22 DAA ECHCG Obs” value (ECHCG; 22.5 g ai/ha alone)?
**A.** The value was 0%.

**Q.** And the “Visual Weed Control (%) - 22 DAA ECHCG Obs” value (ECHCG; 60 g ai/ha alone)?
**A.** The value was 0%.

**Q.** And the “Visual Weed Control (%) - 22 DAA IPOHE Obs” value (IPOHE; 7.5 g ai/ha alone)?
**A.** Its value is 0%.

**Q.** What about the “Visual Weed Control (%) - 22 DAA IPOHE Obs” value (IPOHE; 22.5 g ai/ha alone) of the same compound?
**A.** The value was 0%.

**Q.** What about the “Visual Weed Control (%) - 22 DAA IPOHE Obs” value (IPOHE; 60 g ai/ha alone) of the same compound?
**A.** The value was 0%.

**Q.** And the pest or weed control at […] (LEFCH; Dinebra chinensis, post-emergence, 528 h, 7.5 g ai/ha alone, read-out: Visual Weed Control (%) - 22 DAA LEFCH Obs)?
**A.** Its pest or weed control at […] is 0%.

**Q.** What about the pest or weed control at 22.5 g/ha (LEFCH; Dinebra chinensis, post-emergence, 528 h, 22.5 g ai/ha alone, read-out: Visual Weed Control (%) - 22 DAA LEFCH Obs) of the same compound?
**A.** The pest or weed control at 22.5 g/ha was 0%.

**Q.** What about the pest or weed control at 60 g/ha (LEFCH; Dinebra chinensis, post-emergence, 528 h, 60 g ai/ha alone, read-out: Visual Weed Control (%) - 22 DAA LEFCH Obs) of the same compound?
**A.** Its pest or weed control at 60 g/ha is 0%.

**Q.** `CC1(C)[C@H](C(=O)O[C@H](C#N)c2cccc(Oc3ccccc3)c2)[C@@H]1/C=C(\Cl)C(F)(F)F` (racemic) [Lambda cyhalothrin] was tested. Which “Visual Weed Control (%) - 21 DAA ECHCG Obs” value (ECHCG; 21 DAA, 35 g ai/ha alone) did it give?
**A.** Its value is 0%.

**Q.** And the “Visual Weed Control (%) - 21 DAA IPOHE Obs” value (IPOHE; 21 DAA, 35 g ai/ha alone)?
**A.** Its value is 0%.

**Q.** Which “Visual Weed Control (%) - 21 DAA BRAPP Obs” value (BRAPP; 140 g ai/ha alone) does the source give for `COP(=O)(NC(C)=O)SC` (stereo not drawn) [Acephate, O,S-dimethyl acetylphosphoramidothioate] here?
**A.** Its value is 0%.

**Q.** What about the “Visual Weed Control (%) - 21 DAA BRAPP Obs” value (BRAPP; 280 g ai/ha alone) of the same compound?
**A.** Its value is 0%.

**Q.** What about the “Visual Weed Control (%) - 21 DAA BRAPP Obs” value (BRAPP; 560 g ai/ha alone) of the same compound?
**A.** The value was 0%.

**Q.** What about the “Visual Weed Control (%) - 21 DAA CYPIR Obs” value (CYPIR; 140 g ai/ha alone) of the same compound?
**A.** The value was 0%.

**Q.** And the “Visual Weed Control (%) - 21 DAA CYPIR Obs” value (CYPIR; 280 g ai/ha alone)?
**A.** The value was 0%.

**Q.** What about the “Visual Weed Control (%) - 21 DAA CYPIR Obs” value (CYPIR; 560 g ai/ha alone) of the same compound?
**A.** The value was 0%.

**Q.** What about the “Visual Weed Control (%) - 21 DAA IPOHE Obs” value (IPOHE; 280 g ai/ha alone) of the same compound?
**A.** Its value is 10%.

**Q.** How did the “Visual Weed Control (%) - 20 DAA BRAPP Obs” value (BRAPP; 3 g ai/ha alone) turn out when `CNC(=O)Oc1cccc2ccccc12` [Carbaryl, 1-naphthalenyl N-methylcarbamate] was run?
**A.** Its value is 0%.

**Q.** And the “Visual Weed Control (%) - 20 DAA BRAPP Obs” value (BRAPP; 6 g ai/ha alone)?
**A.** Its value is 0%.

**Q.** What about the “Visual Weed Control (%) - 20 DAA BRAPP Obs” value (BRAPP; 12 g ai/ha alone) of the same compound?
**A.** Its value is 0%.

**Q.** What about the “Visual Weed Control (%) - 20 DAA CYPES Obs” value (CYPES; 24 g ai/ha alone) of the same compound?
**A.** The value was 0%.

**Q.** And the “Visual Weed Control (%) - 20 DAA CYPES Obs” value (CYPES; 48 g ai/ha alone)?
**A.** The value was 0%.

**Q.** And the “Visual Weed Control (%) - 20 DAA CYPES Obs” value (CYPES; 96 g ai/ha alone)?
**A.** Its value is 0%.

**Q.** What about the “Visual Weed Control (%) - 20 DAA CYPIR Obs” value (CYPIR; 3 g ai/ha alone) of the same compound?
**A.** The value was 0%.

**Q.** What about the “Visual Weed Control (%) - 20 DAA CYPIR Obs” value (CYPIR; 6 g ai/ha alone) of the same compound?
**A.** The value was 0%.

**Q.** What about the “Visual Weed Control (%) - 20 DAA CYPIR Obs” value (CYPIR; 12 g ai/ha alone) of the same compound?
**A.** Its value is 0%.

**Q.** What about the “Visual Weed Control (%) - 20 DAA DIGSA Obs” value (DIGSA; 3 g ai/ha alone) of the same compound?
**A.** The value was 0%.

**Q.** And the “Visual Weed Control (%) - 20 DAA DIGSA Obs” value (DIGSA; 6 g ai/ha alone)?
**A.** The value was 0%.

**Q.** And the “Visual Weed Control (%) - 20 DAA DIGSA Obs” value (DIGSA; 12 g ai/ha alone)?
**A.** Its value is 0%.

**Q.** And the “Visual Weed Control (%) - 20 DAA DIGSA Obs” value (DIGSA; 24 g ai/ha alone)?
**A.** The value was 0%.

**Q.** What about the “Visual Weed Control (%) - 20 DAA DIGSA Obs” value (DIGSA; 48 g ai/ha alone) of the same compound?
**A.** Its value is 0%.

**Q.** What about the “Visual Weed Control (%) - 20 DAA DIGSA Obs” value (DIGSA; 96 g ai/ha alone) of the same compound?
**A.** The value was 0%.

**Q.** What about the “Visual Weed Control (%) - 20 DAA ECHCG Obs” value (ECHCG; 3 g ai/ha alone) of the same compound?
**A.** Its value is 0%.

**Q.** And the “Visual Weed Control (%) - 20 DAA ECHCG Obs” value (ECHCG; 6 g ai/ha alone)?
**A.** Its value is 0%.

**Q.** What about the “Visual Weed Control (%) - 20 DAA ECHCG Obs” value (ECHCG; 12 g ai/ha alone) of the same compound?
**A.** Its value is 0%.

**Q.** And the “Visual Weed Control (%) - 20 DAA IPOHE Obs” value (IPOHE; 6 g ai/ha alone)?
**A.** Its value is 0%.

**Q.** What about the “Visual Weed Control (%) - 20 DAA IPOHE Obs” value (IPOHE; 12 g ai/ha alone) of the same compound?
**A.** The value was 10%.

**Q.** What about the “Visual Weed Control (%) - 20 DAA LEFCH Obs” value (LEFCH; 3 g ai/ha alone) of the same compound?
**A.** The value was 0%.

**Q.** What about the “Visual Weed Control (%) - 20 DAA LEFCH Obs” value (LEFCH; 6 g ai/ha alone) of the same compound?
**A.** Its value is 0%.

**Q.** What about the “Visual Weed Control (%) - 20 DAA LEFCH Obs” value (LEFCH; 12 g ai/ha alone) of the same compound?
**A.** Its value is 0%.

**Q.** What does the source list for `CNC(=O)Oc1cccc2c1OC(C)(C)C2` [Carbofuran, 2,3-dihydro-2,2-dimethylbenzofuran-7-yl methylcarbamate]?
**A.** Visual Weed Control (%) - 20 DAA CYPES Obs (CYPES; 125 g ai/ha alone): 0%; Visual Weed Control (%) - 20 DAA CYPES Obs (CYPES; 250 g ai/ha alone): 0%; Visual Weed Control (%) - 21 DAA IPOHE Obs (IPOHE; 500 g ai/ha alone): 0%; Visual Weed Control (%) - 21 DAA LEFCH Obs (LEFCH; 500 g ai/ha alone): 0%
